Target: T1, CsUGT78A14-1 (Camellia sinensis, UniProt A0A109P632)
T1 construct: gene UGT78A14; Ala438 allele
Assay: UDP-Glo glycosyltransferase assay, steady-state kinetics
Assay type: biochemical
Conditions: co-substrate UDP-glucose (Glc row), donor fixed at 100 μM; acceptor varied 1-500 μM; optimized pH and temperature
Excerpt: UDP-Glo glycosyltransferase assay, steady-state kinetics on CsUGT78A14-1

T1 sequence (A0A109P632 entry or part of it): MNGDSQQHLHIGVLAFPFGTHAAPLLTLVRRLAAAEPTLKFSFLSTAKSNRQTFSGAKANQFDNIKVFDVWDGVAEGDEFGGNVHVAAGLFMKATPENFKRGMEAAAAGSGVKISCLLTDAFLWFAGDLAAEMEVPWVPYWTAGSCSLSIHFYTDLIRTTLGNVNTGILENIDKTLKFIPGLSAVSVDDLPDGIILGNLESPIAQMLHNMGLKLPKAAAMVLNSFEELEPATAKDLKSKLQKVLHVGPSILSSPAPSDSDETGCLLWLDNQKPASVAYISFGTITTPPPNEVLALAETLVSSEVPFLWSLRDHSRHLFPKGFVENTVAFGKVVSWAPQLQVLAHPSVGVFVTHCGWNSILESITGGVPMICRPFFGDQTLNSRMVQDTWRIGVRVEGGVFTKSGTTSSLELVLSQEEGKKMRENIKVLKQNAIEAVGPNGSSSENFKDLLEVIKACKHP

Km: 27.1 µM
SMILES: O=c1c(O)c(-c2ccc(O)cc2)oc2cc(O)cc(O)c12 [kaempferol]

Source: PMC6941654, “Glucosyltransferase CsUGT78A14 Regulates Flavonols Accumulation and Reactive Oxygen Species Scavenging in Response to Cold Stress in Camellia sinensis” (Frontiers in Plant Science, 2019)
